Source: patent US20050079529A1, “Very large scale immobilized polymer synthesis” (Affymetrix, INC., priority 1989, published 2005)
“Also recorded” adds a separate entry of the source.

system: antibody 3E7; test: Fluorescence scan of 50 μm YGGFL/PGGFL checkerboard array probed with antibody 3E7 and fluoresceinated goat anti-mouse antibody; assay type: binding; details: 2 μg/ml 3E7; 50 μm checkerboard
Description: FIG. 11 is a flow chart illustrating another example of the invention. Carboxy-activated NVOC-leucine was allowed to react with an aminated substrate. The carboxy activated HOBT ester of leucine and other amino acids used in this synthesis was formed by mixing 0.25 mmol of the NVOC amino protected amino acid with 37 mg HOBT (1-hydroxybenzotriazole), 111 mg BOP (benzotriazolyl-n-oxy-tris (dimethylamino)-phosphoniumhexa-fluorophosphate) and 86 μl DIEA (diisopropylethylamine) in 2.5 ml DMF. The NVOC protecting group was removed by uniform illumination. Carboxy-activated NVOC-phenylalanine was coupled to the exposed amino groups for 2 hours at room temperature, and then washed with DMF and methylene chloride. Two unmasked cycles of photodeprotection and coupling with carboxy-activated NVOC-glycine were carried out. The surface was then illuminated through a chrome on glass 50 μm checkerboard pattern mask. Carboxy-activated Na-tBOC-O-tButyl-L-tyrosine was then added. […]
The array of pentapeptides was probed with a mouse monoclonal antibody directed against β-endorphin. […] The surface was scanned with an epi-fluorescence microscope. […] The height of each spike in this display is linearly proportional to the integrated fluorescence intensity in a 2.5 μm pixel. […] There is little variation in the fluorescence intensity of different YGGFL squares. […]

Molecule	binding of antibody 3E7 to surface peptide
Pro-Gly-Gly-Phe-Leu (PGGFL)	does not bind

system: not listed separately; test: Photolysis of N-protected L-phenylalanine in solution; assay type: physicochemical; details: 5 mM H2SO4/Dioxane; 0.10 mM protected phenylalanine
Description: The photoremovable protecting groups of the present invention are readily removed. For example, the photolysis of N-protected L-phenylalanine in solution having different photoremovable protecting groups was analyzed, and the results are presented in the following table: […]

Molecule	t1/2 in seconds, photolysis of protected L-Phe-OH [min]
CC(OC(=O)NC(Cc1ccccc1)C(=O)O)c1cc2c(cc1[N+](=O)[O-])OCO2 (stereo not shown) [MeNPOC]	0.367
O=C(NC(Cc1ccccc1)C(=O)O)OCc1ccccc1[N+](=O)[O-] (stereo not shown) [NBOC, reference compound]	26.25
COc1cc(COC(=O)NC(Cc2ccccc2)C(=O)O)c([N+](=O)[O-])cc1OC (stereo not shown) [NVOC, reference compound]	1.63

same assay, conditions: Dioxane; 0.10 mM protected phenylalanine

Molecule	t1/2 in seconds, photolysis of protected L-Phe-OH [min]
CC(OC(=O)NC(Cc1ccccc1)C(=O)O)c1cc2c(cc1[N+](=O)[O-])OCO2 (stereo not shown) [MeNPOC]	0.317
O=C(NC(Cc1ccccc1)C(=O)O)OCc1ccccc1[N+](=O)[O-] (stereo not shown) [NBOC, reference compound]	21.47
COc1cc(COC(=O)NC(Cc2ccccc2)C(=O)O)c([N+](=O)[O-])cc1OC (stereo not shown) [NVOC, reference compound]	1.83

system: anti-dynorphin B monoclonal antibody; test: Dynorphin B deletion peptide array, relative binding of anti-dynorphin B monoclonal antibody by fluorescence intensity; details: mean ± spread over N synthesis sites
Description: The binding epitope on dynorphin B for the anti-dynorphin B antibody described above was determined by deleting various amino acids and combinations of amino acids from the overall sequence of dynorphin B. The peptides containing these various deletions were prepared on a substrate by the general protection-deprotection methods described above. Then the substrate was exposed to the anti-dynorphin B monoclonal antibody and a fluorescence image was produced as shown in FIG. 33.
From the intensity distribution contained in this plot, it was possible to determine the relative binding affinity to various of the peptides.

Molecule	RELATIVE INTENSITY
F L R R Q F K V V T: deletion peptide from the dynorphin B sequence (FLRRQFKVVT)	84.2 ± 28.2
F L R R Q F K V V: deletion peptide from the dynorphin B sequence (FLRRQFKVV)	37.4 ± 14.6
F L R R Q F K V: deletion peptide from the dynorphin B sequence (FLRRQFKV)	13.7 ± 3.0
F L R R Q F K: deletion peptide from the dynorphin B sequence (FLRRQFK)	10.2 ± 2.8
F L R R Q F: deletion peptide from the dynorphin B sequence (FLRRQF)	8.5 ± 3.4
K V V T: deletion peptide from the dynorphin B sequence, SEQ ID NO:36 (KVVT)	10.7 ± 1.8
L R R Q F K V V T: deletion peptide from the dynorphin B sequence (LRRQFKVVT)	86.9 ± 13.7
Q F K V V T: deletion peptide from the dynorphin B sequence (QFKVVT)	36.2 ± 16.0
R R Q F K V V T: deletion peptide from the dynorphin B sequence (RRQFKVVT)	98.8 ± 0.9

same assay, conditions: second value in parentheses

Molecule	RELATIVE INTENSITY, value in parentheses (ADJUSTED)
F L R R Q F K V V T: deletion peptide from the dynorphin B sequence (FLRRQFKVVT)	(98.3 ± 1.2)
F L R R Q F K V V: deletion peptide from the dynorphin B sequence (FLRRQFKVV)	(30.5 ± 5.4)

system: Herz antibody; test: YGGFL/GGFL checkerboard slide exposed to Herz antibody and goat anti-mouse fluorescein conjugate; assay type: binding; details: 500×500 μm mask
Description: A first antibody, known as the Herz antibody, was applied to the surface of the slide for 45 minutes at 2 μg/ml in a supercocktail (containing 1% BSA and 1% ovalbumin also in this case). A second antibody, goat anti-mouse fluorescein conjugate, was then added at 2 μg/ml in the supercocktail buffer, and allowed to incubate for 2 hours.
Monomer-by-monomer synthesis of YGGFL and GGFL in alternate squares was performed on a slide in a checkerboard pattern and the resulting slide was exposed to the Herz antibody. This experiment and the results thereof are illustrated in FIGS. 13A, 13B, 13C, and 13D.
In FIG. 13A, a slide is shown which is derivatized with t-BOC-aminopropyl-triethoxysilane. The slide was treated with TFA to remove the t-BOC protecting group. t-BOC-6-aminocaproic acid was then coupled onto the aminopropyl groups. The aminocaproic acid serves as a spacer between the aminopropyl group and the peptide to be synthesized. The amino end of the spacer was deprotected and coupled to NVOC-Leucine. The entire slide was then illuminated with 12 mW of 325 nm broadband illumination. The slide was then coupled with NVOC-Phenylalanine and washed. The entire slide was again illuminated, then coupled to NVOC-Glycine and washed. […]
The resulting fluorescence scan is shown in FIG. 13C, and the scale for the fluorescence intensity is again given on the right. […]

Molecule	recognition by Herz antibody
GGFL: tetrapeptide, SEQ ID NO:15	not recognized

system: Herz antibody; test: 50 μm checkerboard of YGGFL and YPGGFL, antibody fluorescence plot; assay type: binding, mouse; details: not given

Molecule	recognition / binding by the antibody
YPGGFL: peptide, SEQ ID NO:3	does not bind significantly

system: antibody 3E7; test: 10-step binary synthesis array of 1,024 peptides, fluorescence scan after antibody 3E7 and fluoresceinated antibody; assay type: binding, mouse; details: additional binary syntheses based on peptides on phage leads

Molecule	fluorescence signal relative to YGGFM
YGAFM: SEQ ID NO:19	stronger fluorescence signals than does YGGFM
YGAFMQ: SEQ ID NO:18	stronger fluorescence signals than does YGGFM
YGAFQ: SEQ ID NO:20	stronger fluorescence signals than does YGGFM

system: antibody 3E7; test: as above; assay type: binding, mouse; details: not given
Text: The power of the binary masking strategy can be appreciated by the outcome of a 10-step synthesis that produced 1,024 peptides. The polynomial expression for this 10-step binary synthesis was: (f+Ø)(Y+Ø)(G+Ø)(A+Ø)(G+Ø)(T+Ø)(F+Ø)(L+Ø)(S+Ø)(F+Ø)
Each peptide occupied a 400×400 μm square. A 32×32 peptide array (1,024 peptides, including the null peptide and 10 peptides of l=1, and a limited number of duplicates) was clearly evident in a fluorescence scan following side group deprotection and treatment with the antibody 3E7 and fluoresceinated antibody. Each synthesis site was a 400×400 μm square.
(x=20, y=9). […] The median value of the array was 4,800 counts.
The identity of each peptide in the array could be determined from its x and y coordinates (each range from 0 to 31) and the map of FIG. 29. The chemical units at positions 2, 5, 6, 9, and 10 are specified by the y coordinate and those at positions 1, 3, 4, 7, 8 by the x coordinate. All but one of the peptides was shorter than 10 residues. For example, the peptide at x=12 and y=3 is YGAGF (SEQ ID NO:30; […]).
It is often desirable to deduce a binding affinity of a given peptide from the measured fluorescence intensity. Conceptually, the simplest case is one in which a single peptide binds to a univalent antibody molecule. The fluorescence scan is carried out after the slide is washed with buffer for a defined time. The order of fluorescence intensities is then a measure primarily of the relative dissociation rates of the antibody-peptide complexes. If the on-rate constants are the same (e.g., if they are diffusion-controlled), the order of fluorescence intensities will typically correspond to the order of binding affinities. However, the situation is sometimes more complex because a bivalent primary antibody and a bivalent secondary antibody are used. The density of peptides in a synthesis area corresponded to a mean separation of […], which would allow multivalent antibody-peptide interactions. […] For a more complete analysis of how the present invention can be extended to the binding affinity of an immobilized ligand to a receptor, see U.S. Ser. No. 07/796,947, filed Nov. 22, 1991, and incorporated herein by reference.

Molecule	rank of fluorescence in the 1,024 peptide array
YGAF: SEQ ID NO:8	most highly fluorescent
YGAFF: SEQ ID NO:13	most highly fluorescent
YGAFL: SEQ ID NO:6	most highly fluorescent
YGAFLF: SEQ ID NO:12	most highly fluorescent
YGAFLS: SEQ ID NO:4	brightest element of the array; also recorded: most highly fluorescent
YGAFLSF	most highly fluorescent
YGAFS: SEQ ID NO:5	most highly fluorescent
YGAFSF: SEQ ID NO:16	most highly fluorescent
YGAL: SEQ ID NO:11	most highly fluorescent
YGALS: SEQ ID NO:9	most highly fluorescent
YGGFLS: SEQ ID NO:7	most highly fluorescent
YGGFS: SEQ ID NO:10	most highly fluorescent
YGGLS: SEQ ID NO:14	most highly fluorescent

system: antibody 3E7; test: not given; details: known from Meo et al., Proc. Natl. Acad. Sci. USA (1983) 80:4084; cited from earlier work

Molecule	affinity of binding by antibody 3E7
YGGFM: SEQ ID NO:21, the immunogen used to obtain antibody 3E7	nanomolar affinity
